Source: patent US8076487B2, “Pyridone derivative and herbicide” (Kumiai Chemical Industry Co., Ltd., priority 2006, dated 2011)

Legend:
Type in all cases: in vivo
[1] = test system: Japanese bulrush (Scirpus juncoides Roxb.); experiment: Test Example 1: herbicidal effect by soil application to paddy field; details: paddy field soil application; active ingredient 1,000 g per 1 hectare; wettable powder added dropwise to water surface the day after sowing; examined on the 21st day after application
In short: (§1)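 Under greenhouse conditions, seeds sown on puddled paddy soil in 100 cm2 pots under 3 cm of standing water received the test compound; injury was assessed with a standard scoring scheme three weeks (day 21) after treatment.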

[2] = test system: early watergrass (Echinochloa oryzicola Vasing); experiment: as above; details: paddy field soil application; active ingredient 1,000 g per 1 hectare; wettable powder added dropwise to water surface the day after sowing; examined on the 21st day after application
In short: as §1

[3] = test system: heartshape false pickerelweed (Monochoria vaginalis (Burm.f.) C.Presl); experiment: as above; details: paddy field soil application; active ingredient 1,000 g per 1 hectare; wettable powder added dropwise to water surface the day after sowing; examined on the 21st day after application
In short: as §1

[4] = test system: barnyardgrass (Echinochloa crus-galli (L.) P. Beauv. var. crus-galli); experiment: Test Example 2: herbicidal effect by soil application to upland field; details: soil surface spray, upland field soil, 1,000 g active ingredient per hectare, 21st day after application
In short: (§2)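 Seeds were sown in field soil, covered, and the soil surface sprayed with a water-diluted wettable powder at 1,000 g active ingredient per hectare in 1,000 L/ha. Plants grew in a greenhouse, and herbicidal effect was rated against a standard scale 21 days after application.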

[5] = test system: green foxtail (Setaria viridis (L.) P. Beauv.); experiment: as above; details: soil surface spray, upland field soil, 1,000 g active ingredient per hectare, 21st day after application
In short: as §2

[6] = test system: slender amaranth (Amaranthus viridis L.); experiment: as above; details: soil surface spray, upland field soil, 1,000 g active ingredient per hectare, 21st day after application
In short: as §2

[7] = test system: velvetleaf (Abutilon theophrasti medicus); experiment: as above; details: soil surface spray, upland field soil, 1,000 g active ingredient per hectare, 21st day after application
In short: as §2

[8] = test system: barnyardgrass (Echinochloa crus-galli (L.) P. Beauv. var. crus-galli); experiment: Test Example 3: herbicidal effect by application to upland field (foliage treatment); details: 14th day after application; for herbicidal effect (index), Barnyardgrass: foliage treatment, plants grown two weeks, 1,000 g active ingredient per hectare; for herbicidal effect, Barnyardgrass: foliage treatment, 1,000 g active ingredient per 1 hectare, greenhouse
In short: (§3)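 Two weeks after sowing in field soil under greenhouse conditions, seedlings receive a top-down foliar spray of wettable powder diluted in water at an active-ingredient rate of 1,000 g per hectare. Effect is rated against a standard 14 days post-treatment.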

[9] = test system: green foxtail (Setaria viridis (L.) P. Beauv.); experiment: as above; details: 14th day after application; for herbicidal effect (index), Green Foxtail: foliage treatment, plants grown two weeks, 1,000 g active ingredient per hectare; for herbicidal effect, Green Foxtail: foliage treatment, 1,000 g active ingredient per 1 hectare, greenhouse
In short: as §3

[10] = test system: slender amaranth (Amaranthus viridis L.); experiment: as above; details: 14th day after application; for herbicidal effect (index), Slender Amaranth: foliage treatment, plants grown two weeks, 1,000 g active ingredient per hectare; for herbicidal effect, Slender Amaranth: foliage treatment, 1,000 g active ingredient per 1 hectare, greenhouse
In short: as §3

[11] = test system: velvetleaf (Abutilon theophrasti medicus); experiment: as above; details: 14th day after application; for herbicidal effect (index), Velvetleaf: foliage treatment, plants grown two weeks, 1,000 g active ingredient per hectare; for herbicidal effect, Velvetleaf: foliage treatment, 1,000 g active ingredient per 1 hectare, greenhouse
In short: as §3

SMILES | herbicidal effect, Scirpus juncoides Roxb. [1] | herbicidal effect, Echinochloa oryzicola Vasing [2] | herbicidal effect, Monochoria vaginalis (Burm. f.) C. Presl [3] | herbicidal effect (index), Barnyardgrass [4] | herbicidal effect (index), Green Foxtail [5] | herbicidal effect (index), Slender Amaranth [6] | herbicidal effect (index), Velvetleaf [7] | herbicidal effect (index), Barnyardgrass [8] | herbicidal effect (index), Green Foxtail [9] | herbicidal effect (index), Slender Amaranth [10] | herbicidal effect (index), Velvetleaf [11] | herbicidal effect, Barnyardgrass [8] | herbicidal effect, Green Foxtail [9] | herbicidal effect, Slender Amaranth [10] | herbicidal effect, Velvetleaf [11]
O=C1CCCC(O)=C1C(=O)c1ccc(C(F)(F)F)n(CS(=O)(=O)C2CC2)c1=O [I-53] | 5 (90% or more of herbicidal effect and crop phytotoxicity) | 5 (90% or more of herbicidal effect and crop phytotoxicity) | 5 (90% or more of herbicidal effect and crop phytotoxicity) | 5 (90% or more of herbicidal effect and crop phytotoxicity) | 5 (90% or more of herbicidal effect and crop phytotoxicity) | 5 (90% or more of herbicidal effect and crop phytotoxicity) | 5 (90% or more of herbicidal effect and crop phytotoxicity) | 5 (90% or more of herbicidal effect and crop phytotoxicity) | 5 (90% or more of herbicidal effect and crop phytotoxicity) | 5 (90% or more of herbicidal effect and crop phytotoxicity) | 5 (90% or more of herbicidal effect and crop phytotoxicity) |  |  |  | 
CC(C)(C)SCn1c(C(F)(F)F)ccc(C(=O)C2=C(O)CCCC2=O)c1=O [I-55] | 5 (90% or more of herbicidal effect and crop phytotoxicity) | 5 (90% or more of herbicidal effect and crop phytotoxicity) | 5 (90% or more of herbicidal effect and crop phytotoxicity) | 5 (90% or more of herbicidal effect and crop phytotoxicity) | 5 (90% or more of herbicidal effect and crop phytotoxicity) | 5 (90% or more of herbicidal effect and crop phytotoxicity) | 5 (90% or more of herbicidal effect and crop phytotoxicity) | 5 (90% or more of herbicidal effect and crop phytotoxicity) | 5 (90% or more of herbicidal effect and crop phytotoxicity) | 5 (90% or more of herbicidal effect and crop phytotoxicity) | 5 (90% or more of herbicidal effect and crop phytotoxicity) |  |  |  | 
Cn1c(C(F)(F)F)ccc(C(=O)C2=C(O)CCCC2=O)c1=O [I-1, 2-[1,2-dihydro-1-methyl-2-oxo-6-(trifluoromethyl)-pyridine-3-carbonyl]-3-hydroxy-2-cyclohexen-1-one] | 5 (90% or more of herbicidal effect and crop phytotoxicity) | 5 (90% or more of herbicidal effect and crop phytotoxicity) | 5 (90% or more of herbicidal effect and crop phytotoxicity) | 5 (90% or more of herbicidal effect and crop phytotoxicity) | 4 (70 to less than 90% of herbicidal effect and crop phytotoxicity) | 5 (90% or more of herbicidal effect and crop phytotoxicity) | 5 (90% or more of herbicidal effect and crop phytotoxicity) | 4 (70 to less than 90% of herbicidal effect and crop phytotoxicity) | 3 (50 to less than 70% of herbicidal effect and crop phytotoxicity) | 5 (90% or more of herbicidal effect and crop phytotoxicity) | 5 (90% or more of herbicidal effect and crop phytotoxicity) |  |  |  | 
Cn1c(C(F)F)ccc(C(=O)C2=C(O)CCCC2=O)c1=O [I-221] | 5 (90% or more of herbicidal effect and crop phytotoxicity) | 5 (90% or more of herbicidal effect and crop phytotoxicity) | 5 (90% or more of herbicidal effect and crop phytotoxicity) | 5 (90% or more of herbicidal effect and crop phytotoxicity) | 3 (50 to less than 70% of herbicidal effect and crop phytotoxicity) | 5 (90% or more of herbicidal effect and crop phytotoxicity) | 5 (90% or more of herbicidal effect and crop phytotoxicity) |  |  |  |  | 5 (90% or more of herbicidal effect and crop phytotoxicity) | 4 (70 to less than 90% of herbicidal effect and crop phytotoxicity) | 5 (90% or more of herbicidal effect and crop phytotoxicity) | 5 (90% or more of herbicidal effect and crop phytotoxicity)
O=C1CCCC(O)=C1C(=O)c1ccc(C(F)(F)F)n(-c2cccc(F)c2)c1=O [I-92] | 5 (90% or more of herbicidal effect and crop phytotoxicity) | 5 (90% or more of herbicidal effect and crop phytotoxicity) | 5 (90% or more of herbicidal effect and crop phytotoxicity) | 5 (90% or more of herbicidal effect and crop phytotoxicity) | 5 (90% or more of herbicidal effect and crop phytotoxicity) | 5 (90% or more of herbicidal effect and crop phytotoxicity) | 5 (90% or more of herbicidal effect and crop phytotoxicity) | 5 (90% or more of herbicidal effect and crop phytotoxicity) | 5 (90% or more of herbicidal effect and crop phytotoxicity) | 5 (90% or more of herbicidal effect and crop phytotoxicity) | 5 (90% or more of herbicidal effect and crop phytotoxicity) |  |  |  | 
COC(=O)N(C)n1c(C(F)(F)F)ccc(C(=O)C2=C(O)CCCC2=O)c1=O [I-190] | 5 (90% or more of herbicidal effect and crop phytotoxicity) | 5 (90% or more of herbicidal effect and crop phytotoxicity) | 5 (90% or more of herbicidal effect and crop phytotoxicity) | 5 (90% or more of herbicidal effect and crop phytotoxicity) | 4 (70 to less than 90% of herbicidal effect and crop phytotoxicity) | 5 (90% or more of herbicidal effect and crop phytotoxicity) | 5 (90% or more of herbicidal effect and crop phytotoxicity) |  |  |  |  | 5 (90% or more of herbicidal effect and crop phytotoxicity) | 5 (90% or more of herbicidal effect and crop phytotoxicity) | 5 (90% or more of herbicidal effect and crop phytotoxicity) | 5 (90% or more of herbicidal effect and crop phytotoxicity)
Cn1c(C(F)(F)F)ccc(C(=O)C2=C(Sc3ccccc3)C3CCC(C3)C2=O)c1=O (stereo not shown) [III-14] | 5 (90% or more of herbicidal effect and crop phytotoxicity) | 5 (90% or more of herbicidal effect and crop phytotoxicity) | 5 (90% or more of herbicidal effect and crop phytotoxicity) | 4 (70 to less than 90% of herbicidal effect and crop phytotoxicity) | 4 (70 to less than 90% of herbicidal effect and crop phytotoxicity) | 5 (90% or more of herbicidal effect and crop phytotoxicity) | 5 (90% or more of herbicidal effect and crop phytotoxicity) |  |  |  |  | 5 (90% or more of herbicidal effect and crop phytotoxicity) | 5 (90% or more of herbicidal effect and crop phytotoxicity) | 5 (90% or more of herbicidal effect and crop phytotoxicity) | 5 (90% or more of herbicidal effect and crop phytotoxicity)
O=C1CCCC(O)=C1C(=O)c1ccc(C(F)(F)F)n(CCC=C(Cl)Cl)c1=O [I-26] | 5 (90% or more of herbicidal effect and crop phytotoxicity) | 5 (90% or more of herbicidal effect and crop phytotoxicity) | 5 (90% or more of herbicidal effect and crop phytotoxicity) | 5 (90% or more of herbicidal effect and crop phytotoxicity) | 5 (90% or more of herbicidal effect and crop phytotoxicity) | 5 (90% or more of herbicidal effect and crop phytotoxicity) | 5 (90% or more of herbicidal effect and crop phytotoxicity) | 4 (70 to less than 90% of herbicidal effect and crop phytotoxicity) | 4 (70 to less than 90% of herbicidal effect and crop phytotoxicity) | 5 (90% or more of herbicidal effect and crop phytotoxicity) | 5 (90% or more of herbicidal effect and crop phytotoxicity) |  |  |  | 
